Measurements from patent publication US12077503B2, “Substituted cyclic amides and their use as herbicides” (FMC CORPORATION, priority 2015, dated 2024).
Where two headings read alike, the source gives them in different places.

Legend:
Format in all cases: in vivo
[1] = system: Kochia (Kochia scoparia); assay: Test A preemergence; conditions: Bassia scoparia, pre-emergence, 240 h; for pest or weed control at 500 g/ha: 500 g ai/ha, preemergence; for pest or weed control at 125 g/ha: Preemergence, 125 g ai/ha
How it was run: (§1)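 Treatment is preemergence as a directed soil spray after planting, or postemergence at the one- to two-leaf stage, with test chemical in a non-phytotoxic solvent mixture plus surfactant. Plants stay in the greenhouse about 10 d before visual injury scoring on a 0 to 100 scale versus untreated controls.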

[2] = system: barnyardgrass (Echinochloa crus-galli); assay: Test A preemergence; conditions: Echinochloa crus-galli, pre-emergence, 240 h; for pest or weed control at 500 g/ha: 500 g ai/ha, preemergence; for pest or weed control at 125 g/ha: Preemergence, 125 g ai/ha
How it was run: as §1

[3] = system: giant foxtail (Setaria faberii); assay: Test A preemergence; conditions: Setaria faberi, pre-emergence, 240 h; for pest or weed control at 500 g/ha: 500 g ai/ha, preemergence; for pest or weed control at 125 g/ha: Preemergence, 125 g ai/ha
How it was run: as §1

[4] = system: pigweed (Amaranthus retroflexus); assay: Test A preemergence; conditions: Amaranthus retroflexus, pre-emergence, 240 h; for pest or weed control at 500 g/ha: 500 g ai/ha, preemergence; for pest or weed control at 125 g/ha: Preemergence, 125 g ai/ha
[5] = system: ragweed (common ragweed, Ambrosia elatior); assay: Test A preemergence; conditions: Ambrosia artemisiifolia, pre-emergence, 240 h; for pest or weed control at 500 g/ha: 500 g ai/ha, preemergence; for pest or weed control at 125 g/ha: Preemergence, 125 g ai/ha
How it was run: as §1

[6] = system: ryegrass, Italian (Italian ryegrass, Lolium multiflorum); assay: Test A preemergence; conditions: Lolium multiflorum, pre-emergence, 240 h, 0 to 100 scale (0 no effect, 100 complete control), read-out: Plant response rating, Ryegrass, Italian; for pest or weed control at 125 g/ha: Preemergence, 125 g ai/ha
How it was run: as §1

[7] = system: corn (Zea mays); assay: Test A postemergence; conditions: Zea mays, post-emergence, 240 h, Postemergence; for plant injury at 125 g/ha: 125 g ai/ha, visual rating about 10 d after treatment, read-out: Corn plant response rating (0 to 100 scale); for Corn plant response rating (crop injury, 0 = no effect, 100 = complete kill) at 500 g/ha: 500 g ai/ha, visual injury, 0 to 100 scale (0 no effect, 100 complete control), approx. 10 d
How it was run: as §1

[8] = system: pigweed (Amaranthus retroflexus); assay: Test A postemergence; conditions: Amaranthus retroflexus, post-emergence, 240 h, Postemergence; for pest or weed control at 125 g/ha: 125 g ai/ha, visual rating about 10 d after treatment, read-out: Pigweed plant response rating (0 to 100 scale); for pest or weed control at 500 g/ha: 500 g ai/ha, visual injury, 0 to 100 scale (0 no effect, 100 complete control), approx. 10 d, read-out: Plant response rating, Pigweed
How it was run: as §1

[9] = system: ryegrass, Italian (Italian ryegrass, Lolium multiflorum); assay: Test A postemergence; conditions: Lolium multiflorum, post-emergence, 240 h, Postemergence; for pest or weed control at 125 g/ha: 125 g ai/ha, visual rating about 10 d after treatment, read-out: Ryegrass, Italian plant response rating (0 to 100 scale); for pest or weed control at 500 g/ha: 500 g ai/ha, visual injury, 0 to 100 scale (0 no effect, 100 complete control), approx. 10 d, read-out: Plant response rating, Ryegrass, Italian
How it was run: as §1

[10] = system: wheat (Triticum aestivum); assay: Test A postemergence; conditions: Triticum aestivum, post-emergence, 240 h, Postemergence; for plant injury at 125 g/ha: 125 g ai/ha, visual rating about 10 d after treatment, read-out: Wheat plant response rating (0 to 100 scale); for plant injury at 500 g/ha: 500 g ai/ha, visual injury, 0 to 100 scale (0 no effect, 100 complete control), approx. 10 d, read-out: Plant response rating, Wheat
How it was run: as §1

[11] = system: barnyardgrass (Echinochloa crus-galli); assay: Test B flooded paddy test; conditions: Echinochloa crus-galli, 250 g ai/ha, Flood
How it was run: (§2)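 Response scored visually against untreated controls, 0 = no effect and 100 = complete control, 13–15 d after treatment in the greenhouse. Compounds added to paddy water held 3 cm above soil surface. Treatment given at 2-leaf stage.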

[12] = system: ducksalad (Heteranthera limosa); assay: Test B flooded paddy test; conditions: Heteranthera limosa, 250 g ai/ha, Flood
How it was run: as §2

[13] = system: rice (Oryra sativa); assay: Test B flooded paddy test; conditions: Oryza sativa, 250 g ai/ha, Flood
How it was run: as §2

[14] = system: sedge, umbrella (small-flower umbrella sedge, Cyperus difformis); assay: Test B flooded paddy test; conditions: Cyperus difformis, 360 h, Flood, 250 g ai/ha; visually evaluated after 13 to 15 d; read-out: Plant response rating, Sedge, Umbrella (0 to 100 scale where 0 is no effect and 100 is complete control)
How it was run: as §2

[15] = 0 to 100 scale where 0 is no effect and 100 is complete control, read-out: Kochia plant response rating
[16] = 0 to 100 scale (0 no effect, 100 complete control), read-out: Plant response rating, Kochia
[17] = 0 to 100 scale where 0 is no effect and 100 is complete control, read-out: Barnyardgrass plant response rating
[18] = 0 to 100 scale (0 no effect, 100 complete control), read-out: Plant response rating, Barnyardgrass
[19] = 0 to 100 scale where 0 is no effect and 100 is complete control, read-out: Foxtail, Giant plant response rating
[20] = 0 to 100 scale (0 no effect, 100 complete control), read-out: Plant response rating, Foxtail, Giant
[21] = 0 to 100 scale where 0 is no effect and 100 is complete control, read-out: Pigweed plant response rating
[22] = 0 to 100 scale (0 no effect, 100 complete control), read-out: Plant response rating, Pigweed
[23] = 0 to 100 scale where 0 is no effect and 100 is complete control, read-out: Ragweed plant response rating
[24] = 0 to 100 scale (0 no effect, 100 complete control), read-out: Plant response rating, Ragweed
[25] = 0 to 100 scale where 0 is no effect and 100 is complete control, read-out: Ducksalad plant response rating
[26] = 0 to 100 scale where 0 is no effect and 100 is complete control, read-out: Rice plant response rating

| Structure (SMILES) | pest or weed control at 500 g/ha [1, 15] [%] | pest or weed control at 125 g/ha [1, 16] [%] | pest or weed control at 500 g/ha [2, 17] [%] | pest or weed control at 125 g/ha [2, 18] [%] | pest or weed control at 500 g/ha [3, 19] [%] | pest or weed control at 125 g/ha [3, 20] [%] | pest or weed control at 500 g/ha [4, 21] [%] | pest or weed control at 125 g/ha [4, 22] [%] | pest or weed control at 500 g/ha [5, 23] [%] | pest or weed control at 125 g/ha [5, 24] [%] | pest or weed control at 125 g/ha [6] [%] | plant injury at 125 g/ha [7] [%] | Corn plant response rating (crop injury, 0 = no effect, 100 = complete kill) at 500 g/ha [7] [%] | pest or weed control at 125 g/ha [8] [%] | pest or weed control at 500 g/ha [8] [%] | pest or weed control at 125 g/ha [9] [%] | pest or weed control at 500 g/ha [9] [%] | plant injury at 125 g/ha [10] [%] | plant injury at 500 g/ha [10] [%] | pest or weed control at 250 g/ha [14] [%] | also measured |
| --- | --- | --- | --- | --- | --- | --- | --- | --- | --- | --- | --- | --- | --- | --- | --- | --- | --- | --- | --- | --- | --- |
| CN1C[C@H](c2cccc(C(C)(F)F)c2)[C@@H](C(=O)Nc2ccc(F)cc2F)C1=O [Compound 1319] | 80 | 80 | 90 | 90 | 90 | 90 | 60 | 0 | 20 | 0 | 30 | 70 | 80 | 0 | 50 | 40 | 60 | 60 | 60 | 0 | pest or weed control at 250 g/ha [11, 17]: 90%; pest or weed control at 250 g/ha [12, 25]: 90%; pest or weed control at 250 g/ha [13, 26]: 0% |
| CN1C[C@H](c2ccc3c(c2)CCO3)[C@@H](C(=O)Nc2cccc(F)c2F)C1=O [Compound 1324] | 90 | 90 | 100 | 90 | 100 | 90 | 40 | 0 | 90 | 90 | 20 | 60 | 80 | 0 | 20 | 30 | 50 | 30 | 70 | 0 | pest or weed control at 250 g/ha [11, 17]: 75%; pest or weed control at 250 g/ha [12, 25]: 65%; pest or weed control at 250 g/ha [13, 26]: 0% |
| O=C1NC[C@H](c2ccc(OC(F)F)cc2)[C@H]1C(=O)Nc1ccc(F)cc1F [Compound 1325] | 90 | 80 | 90 | 90 | 90 | 90 | 90 | 60 | 70 | 10 | 0 | 0 | 50 | 70 | 90 | 0 | 0 | 0 | 0 | 0 | pest or weed control at 250 g/ha [11, 17]: 15%; pest or weed control at 250 g/ha [12, 25]: 100%; pest or weed control at 250 g/ha [13, 26]: 0% |
| Cc1c(F)ccc([C@H]2CNC(=O)[C@@H]2C(=O)Nc2ccccc2F)c1F [Compound 1326] | 100 | 30 | 90 | 80 | 90 | 60 | 0 | 0 | 0 | 0 | 20 | 0 | 0 | 0 | 0 | 0 | 20 | 0 | 0 | 0 | pest or weed control at 250 g/ha [11, 17]: 0%; pest or weed control at 250 g/ha [12, 25]: 70%; pest or weed control at 250 g/ha [13, 26]: 0% |
| C=CCOc1cccc(C2CN(C)C(=O)C2C(=O)Nc2ccccc2F)c1 (centres unmarked) [Compound 1329] | – | 50 | – | 90 | – | 90 | – | 0 | – | 0 | 0 | 30 | 50 | 0 | 0 | 0 | 50 | 0 | 20 | 0 | pest or weed control at 500 g/ha [1, 16]: 50%; pest or weed control at 500 g/ha [2, 18]: 100%; pest or weed control at 500 g/ha [3, 20]: 90%; pest or weed control at 500 g/ha [4, 22]: 30%; pest or weed control at 500 g/ha [5, 24]: 20%; pest or weed control at 500 g/ha ([6]; 500 g ai/ha, preemergence): 40%; pest or weed control at 250 g/ha ([11]; 360 h, visually evaluated after 13 to 15 d, read-out: Plant response rating, Barnyardgrass (0 to 100 scale where 0 is no effect and 100 is complete control)): 60%; pest or weed control at 250 g/ha ([12]; 360 h, visually evaluated after 13 to 15 d, read-out: Plant response rating, Ducksalad (0 to 100 scale where 0 is no effect and 100 is complete control)): 70%; pest or weed control at 250 g/ha ([13]; 360 h, visually evaluated after 13 to 15 d, read-out: Plant response rating, Rice (0 to 100 scale where 0 is no effect and 100 is complete control)): 0% |
